{"source": "patent US20100291584A1", "about": "“MICROFLUIDIC IMAGING CYTOMETRY” (The Regents of the University of California, priority 2008, published 2010)", "key": {"U87 cells": {"tested_on": "U87 cells", "experiment": "2-NBDG glucose analog uptake on chip", "format": "cell-based, human", "details": "20 min incubation in HBSS", "experimental": "(§1) To monitor glucose uptake in U87 cells, a fluorescent deoxyglucose (2-[N-(7-nitrobenz-2-oxa-1,3-diaxol-4-yl)amino]-2-deoxyglucose; 2-NBDG)^72,73 was used and monitored the 2-NBDG uptake by U87 and U87-PTEN cells (FIG. 6). After cells were loaded into a chip, culture medium was washed with Hanks' balanced salt solution (HBSS) with CaCl2. Then, 2-NBDG in HBSS was loaded into a cell chamber and incubated for 20 min in an incubator."}, "U87-PTEN cells": {"tested_on": "U87-PTEN cells", "experiment": "2-NBDG glucose analog uptake on chip", "format": "cell-based, human", "details": "20 min incubation in HBSS", "experimental": "as §1"}, "mTOR": {"molecular_target": "mTOR (Homo sapiens, UniProt P42345+P62942)", "details": "glioblastoma patients"}, "[1]": {"tested_on": "recurrent malignant gliomas", "experiment": "Clinical trial of Avastin (in combination with CPT-11) in patients with recurrent malignant gliomas", "format": "in vivo, human", "from_the_text": "The obvious clinical efficacy of avastin will most certainly change the standard of care for malignant glioma patients. […] We will address the following questions: 1) does increased vascularity predispose towards clinical response to avastin (this will be done in collaboration with Dr. Luisa Iruela-Arispe, a noted expert in angiogenesis at UCLA); 2) are the downstream signaling pathways regulated by VEGF reactivated during response and by what mechanism. Are tumors which are driven by key pathways that promote VEGF expression (i.e. EGFR/PI3K signaling) more sensitive to avastin? In addition to testing lese specific hypotheses, we will apply global screening strategies. These include array CGH to detect chromosomal regions of interest associated with sensitivity and resistance (will be done at MSKCC by Dr. Mellinghoff) and integrated with global gene expression data (done both at UCLA and at MSKCC), in addition, through our NanoSystems Biology Cancer Center, we have begun collaboration with Dr. Lee Hood to use surface Plasmon resonance to facilitate the quantitative detection of thousands of proteins in a serum samples. This will enable us to identify protein signatures associated with sensitivity and acquired resistance."}}, "data": [{"compound": "O=[N+]([O-])c1ccc(N[C@H]2C(O)O[C@H](CO)[C@@H](O)[C@@H]2O)c2nonc12", "note": "(stereo partly drawn) [2-NBDG, 2-[N-(7-nitrobenz-2-oxa-1,3-diaxol-4-yl)amino]-2-deoxyglucose]", "values": [{"measurement": "fluorescent signal of 2-NBDG uptake", "setting": "U87 cells", "value": "signals of 2-NBDG were observed"}, {"measurement": "fluorescent signal of 2-NBDG uptake", "setting": "U87-PTEN cells", "value": "could not be detected"}]}, {"compound": "CO[C@H]1C[C@@H]2CC[C@@H](C)[C@@](O)(O2)C(=O)C(=O)N2CCCC[C@H]2C(=O)O[C@H]([C@H](C)C[C@@H]2CC[C@@H](O)[C@H](OC)C2)CC(=O)[C@H](C)/C=C(\\C)[C@@H](O)[C@@H](OC)C(=O)[C@H](C)C[C@H](C)/C=C/C=C/C=C/1C", "note": "[rapamycin]", "values": [{"measurement": "rapamycin level in tumor tissue in vivo", "setting": "mTOR", "value": "present in potentially therapeutic levels"}, {"measurement": "extent of mTOR pathway inhibition", "setting": "mTOR; in vivo, variable between patients", "value": "10%-80%"}]}, {"compound": "Avastin: VEGF inhibitor, given in combination with CPT-11", "values": [{"measurement": "median time to tumor progression", "setting": "[1]; Avastin with CPT-11, 95% CI=122-272, comparator median 56 days", "value": 209, "unit": "days"}, {"measurement": "median overall survival", "setting": "[1]; Avastin with CPT-11, 95% CI=251-424, comparator median 184 days", "value": 340, "unit": "days"}]}]}
